IC50 data for 22 molecules are collected here from patent publication US12157746B2, “Tetrahydro-1H-pyrazino[2,1-a]isoindolylquinoline compounds for the treatment of autoimmune disease” (F. HOFFMANN-LA ROCHE AG, priority 2018, dated 2024).

Where only a bound is given, the exact number is not on record here.

The target of the assay is T1, human TLR7 (Homo sapiens, UniProt Q9NYK1).
T1 sequence (Q9NYK1 27-1049): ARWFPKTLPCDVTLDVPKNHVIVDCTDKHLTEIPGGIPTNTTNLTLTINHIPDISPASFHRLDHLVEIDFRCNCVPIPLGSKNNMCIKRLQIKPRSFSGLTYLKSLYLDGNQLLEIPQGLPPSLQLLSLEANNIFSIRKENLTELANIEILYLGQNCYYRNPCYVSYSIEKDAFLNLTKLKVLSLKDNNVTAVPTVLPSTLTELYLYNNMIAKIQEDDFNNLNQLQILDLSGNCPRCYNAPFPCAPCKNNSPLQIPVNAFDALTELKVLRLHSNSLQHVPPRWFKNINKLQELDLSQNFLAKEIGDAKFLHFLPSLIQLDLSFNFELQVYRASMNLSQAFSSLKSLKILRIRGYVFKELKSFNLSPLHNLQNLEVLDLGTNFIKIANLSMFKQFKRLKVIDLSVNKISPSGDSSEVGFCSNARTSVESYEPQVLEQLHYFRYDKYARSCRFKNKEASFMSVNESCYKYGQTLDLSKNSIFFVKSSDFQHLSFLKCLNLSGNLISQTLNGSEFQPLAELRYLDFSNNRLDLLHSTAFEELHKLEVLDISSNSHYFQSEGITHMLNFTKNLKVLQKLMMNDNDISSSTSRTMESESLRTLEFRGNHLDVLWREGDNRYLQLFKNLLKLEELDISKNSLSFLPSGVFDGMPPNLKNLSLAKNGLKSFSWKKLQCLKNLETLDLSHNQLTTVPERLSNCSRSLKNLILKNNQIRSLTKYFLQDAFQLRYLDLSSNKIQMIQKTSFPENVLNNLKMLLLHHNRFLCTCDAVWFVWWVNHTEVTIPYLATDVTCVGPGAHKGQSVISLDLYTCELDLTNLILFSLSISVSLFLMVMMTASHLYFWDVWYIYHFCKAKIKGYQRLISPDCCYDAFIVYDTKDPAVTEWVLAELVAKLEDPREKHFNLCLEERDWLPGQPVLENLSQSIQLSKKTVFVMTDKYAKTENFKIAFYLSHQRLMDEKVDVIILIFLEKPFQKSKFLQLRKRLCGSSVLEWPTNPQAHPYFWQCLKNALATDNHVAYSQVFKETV
Put plainly: HEK293-Blue-hTLR-7 cells assay. The assay is classed as cell-based. To be noted: HEK293-Blue-hTLR7 cells, R848 stimulation, 20 hrs, SEAP reporter; read-out: HEK/hTLR7 IC50. In a few lines: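 HEK293-Blue-hTLR7 cells (NF-κB/AP-1-driven SEAP reporter) incubated with serially diluted compound (1% DMSO final) and R848 agonist for 20 h at 37 °C. Supernatant SEAP measured with QUANTI-Blue (2 h, 37 °C) by absorbance at 620-655 nm; antagonism seen as reduced reporter.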
For `C[C@@H]1CN(c2ccc(C#N)c3ncccc23)C[C@@H]2c3ccc(NC[C@H]4CNCCO4)cc3CN12` [Example 59, 5-[(4R,10bS)-4-methyl-8-[[(2R)-morpholin-2-yl]methylamino]-3,4,6,10b-tetrahydro-1H-pyrazino[2,1-a]isoindol-2-yl]quinoline-8-carbonitrile], the IC50 is under 3.2 nM. Then `C[C@@H]1CN(c2ccc(C#N)c3ncccc23)C[C@@H]2c3cc(F)c(N4C[C@H](N)[C@@](C)(O)C4)cc3CN12` [Example 83, 5-[(4R,10bS)-8-[(3S,4S)-4-amino-3-hydroxy-3-methyl-pyrrolidin-1-yl]-9-fluoro-4-methyl-3,4,6,10b-tetrahydro-1H-pyrazino[2,1-a]isoindol-2-yl]quinoline-8-carbonitrile], with 2.7 nM; and `C[C@@H]1CN(c2ccc(C#N)c3ncccc23)C[C@@H]2c3ccc(C(=O)N4CCC(C)(N)CC4)cc3CN12` [Example 88, 5-[(4R,10bS)-8-(4-amino-4-methyl-piperidine-1-carbonyl)-4-methyl-3,4,6,10b-tetrahydro-1H-pyrazino[2,1-a]isoindol-2-yl]quinoline-8-carbonitrile], with 3.7 nM; and `CO[C@@H]1CNC[C@@H]1Nc1ccc2c(c1)CN1[C@H](C)CN(c3ccc(C#N)c4ncccc34)C[C@H]21` [Example 60, 5-[(4R,10bS)-8-[[(3S,4R)-4-methoxypyrrolidin-3-yl]amino]-4-methyl-3,4,6,10b-tetrahydro-1H-pyrazino[2,1-a]isoindol-2-yl]quinoline-8-carbonitrile], with 3.2 nM. With `CO[C@H]1CNC[C@@H]1N(C)c1ccc2c(c1)CN1[C@H](C)CN(c3ccc(C#N)c4ncccc34)C[C@H]21` [Example 64, 5-[(4R,10bS)-8-[[(3S,4S)-4-methoxypyrrolidin-3-yl]-methyl-amino]-4-methyl-3,4,6,10b-tetrahydro-1H-pyrazino[2,1-a]isoindol-2-yl]quinoline-8-carbonitrile], the IC50 is under 3.2 nM.

Turning to `C[C@@H]1CN(c2ccc(C#N)c3ncccc23)C[C@@H]2c3ccc(NCC4(F)CNC4)cc3CN12` [Example 69, 5-[(4R,10bS)-8-[(3-fluoroazetidin-3-yl)methylamino]-4-methyl-3,4,6,10b-tetrahydro-1H-pyrazino[2,1-a]isoindol-2-yl]quinoline-8-carbonitrile], the IC50 came out at 18.2 nM. For `C[C@@H]1CN(c2ccc(C#N)c3ncccc23)C[C@@H]2c3ccc(NC[C@@H]4C[C@H](F)CN4)cc3CN12` [Example 70, 5-[(4R,10bS)-8-[[(2S,4S)-4-fluoropyrrolidin-2-yl]methylamino]-4-methyl-3,4,6,10b-tetrahydro-1H-pyrazino[2,1-a]isoindol-2-yl]quinoline-8-carbonitrile], the IC50 is 9 nM. Then `C[C@@H]1CN(c2ccc(C#N)c3ncccc23)C[C@@H]2c3ccc(NCCN4CC[C@H](O)C4)cc3CN12` [Example 68, 5-[(4R,10bS)-8-[2-[(3S)-3-hydroxypyrrolidin-1-yl]ethylamino]-4-methyl-3,4,6,10b-tetrahydro-1H-pyrazino[2,1-a]isoindol-2-yl]quinoline-8-carbonitrile], with 3.3 nM; and `CO[C@H]1CNC[C@H]1Nc1ccc2c(c1)CN1[C@H](C)CN(c3ccc(C#N)c4ncccc34)C[C@H]21` [Example 61, 5-[(4R,10bS)-8-[[(3R,4S)-4-methoxypyrrolidin-3-yl]amino]-4-methyl-3,4,6,10b-tetrahydro-1H-pyrazino[2,1-a]isoindol-2-yl]quinoline-8-carbonitrile], with 5.7 nM; and `C[C@@H]1CN(c2ccc(C#N)c3ncccc23)C[C@@H]2c3ccc(NC[C@@H]4CNCCO4)cc3CN12` [Example 58, 5-[(4R,10bS)-4-methyl-8-[[(2S)-morpholin-2-yl]methylamino]-3,4,6,10b-tetrahydro-1H-pyrazino[2,1-a]isoindol-2-yl]quinoline-8-carbonitrile], with under 3.2 nM. `CO[C@H]1CNCC[C@H]1Nc1ccc2c(c1)CN1[C@H](C)CN(c3ccc(C#N)c4ncccc34)C[C@H]21` [Example 66, 5-[(4R,10bS)-8-[[(3S,4R)-3-methoxy-4-piperidyl]amino]-4-methyl-3,4,6,10b-tetrahydro-1H-pyrazino[2,1-a]isoindol-2-yl]quinoline-8-carbonitrile]: the IC50 was under 3.2 nM. Take `N#Cc1ccc(N2CCN3Cc4cc(N5CCNCC5)ccc4C3C2)c2cccnc12` (stereo not shown) [Example 3, 5-(8-piperazin-1-yl-3,4,6,10b-tetrahydro-1H-pyrazino[2,1-a]isoindol-2-yl)quinoline-8-carbonitrile]: the IC50 was found to be 42.6 nM. `C[C@@H]1CN(c2ccc(C(F)(F)F)c3nccnc23)C[C@@H]2c3ccc(N[C@H]4CNC[C@H]4F)cc3CN12` [Example 77, (4R,10bS)—N-[(3S,4R)-4-fluoropyrrolidin-3-yl]-4-methyl-2-[8-(trifluoromethyl)quinoxalin-5-yl]-3,4,6,10b-tetrahydro-1H-pyrazino[2,1-a]isoindol-8-amine]: the IC50 was 12.6 nM. On to `C[C@@H]1CN(c2ccc(C#N)c3ncccc23)C[C@@H]2c3ccc(N[C@@H]4CCCNC4)cc3CN12` [Example 65, 5-[(4R,10bS)-4-methyl-8-[[(3R)-3-piperidyl]amino]-3,4,6,10b-tetrahydro-1H-pyrazino[2,1-a]isoindol-2-yl]quinoline-8-carbonitrile], for which the IC50 is 4.4 nM. As for `C[C@@H]1CN(c2ccc(C#N)c3ncccc23)C[C@@H]2c3ccc(N[C@@H]4CNCCOC4)cc3CN12` [Example 56A, 5-[(4R,10bS)-4-methyl-8-[[(6R)-1,4-oxazepan-6-yl]amino]-3,4,6,10b-tetrahydro-1H-pyrazino[2,1-a]isoindol-2-yl]quinoline-8-carbonitrile], the figure is 11.1 nM; as for `C[C@@H]1CN(c2ccc(C#N)c3ncccc23)C[C@@H]2c3ccc(N4CCNCC4)cc3CN12` [Example 1, 5-[(4R,10bS)-4-methyl-8-piperazin-1-yl-3,4,6,10b-tetrahydro-1H-pyrazino[2,1-a]isoindol-2-yl]quinoline-8-carbonitrile], under 3.2 nM; as for `C[C@@H]1CN(c2ccc(C#N)c3ncccc23)C[C@@H]2c3cc(F)c(N4CC5(CNC5)C4)cc3CN12` [Example 84, 5-[(4R,10bS)-8-(2,6-diazaspiro[3.3]heptan-2-yl)-9-fluoro-4-methyl-3,4,6,10b-tetrahydro-1H-pyrazino[2,1-a]isoindol-2-yl]quinoline-8-carbonitrile], 2.6 nM. `C[C@@H]1CN(c2ccc(C#N)c3ncccc23)C[C@@H]2c3ccc(N[C@H]4CNCCOC4)cc3CN12` [Example 56B, 5-[(4R,10bS)-4-methyl-8-[[(6S)-1,4-oxazepan-6-yl]amino]-3,4,6,10b-tetrahydro-1H-pyrazino[2,1-a]isoindol-2-yl]quinoline-8-carbonitrile]: the IC50 was 4.5 nM.

`CO[C@@H]1CNC[C@H]1Nc1cc2c(cc1C)[C@H]1CN(c3ccc(C#N)c4ncccc34)C[C@@H](C)N1C2` [Example 63, 5-[(4R,10bS)-8-[[(3R,4R)-4-methoxypyrrolidin-3-yl]amino]-4,9-dimethyl-3,4,6,10b-tetrahydro-1H-pyrazino[2,1-a]isoindol-2-yl]quinoline-8-carbonitrile]: the IC50 worked out at 7.3 nM. In the case of `[2H]c1ccc2c(N3C[C@@H](C)N4Cc5cc(N6CC7(CNCCO7)C6)ccc5[C@H]4C3)ccc(C#N)c2n1` [Example 90, 5-[(4R,10bS)-4-methyl-8-(5-oxa-2,8-diazaspiro[3.5]nonan-2-yl)-3,4,6,10b-tetrahydro-1H-pyrazino[2,1-a]isoindol-2-yl]-2-deuterio-quinoline-8-carbonitrile], the IC50 is 2.9 nM. With `C[C@@H]1CN(c2ccc(Cl)c3ncccc23)C[C@@H]2c3ccc(N[C@H]4CNC[C@H]4F)cc3CN12` [Example 79, (4R,10b)-2-(8-chloro-5-quinolyl)-N-[(3S,4R)-4-fluoropyrrolidin-3-yl]-4-methyl-3,4,6,10b-tetrahydro-1H-pyrazino[2,1-a]isoindol-8-amine], the IC50 is 7.6 nM.

On to `Cc1ccc(N2C[C@@H](C)N3Cc4cc(N[C@H]5CNC[C@H]5F)ccc4[C@H]3C2)c2nccnc12` [Example 76, (4R,10bS)—N-[(3S,4R)-4-fluoropyrrolidin-3-yl]-4-methyl-2-(8-methylquinoxalin-5-yl)-3,4,6,10b-tetrahydro-1H-pyrazino[2,1-a]isoindol-8-amine], for which the IC50 was found to be 22.8 nM.
